Consider 1 molecule from patent publication US11376229B2, “Method of treating or preventing neurodegeneration” (Reprise Pharmaceuticals, Inc., priority 2011, dated 2022).

The target of one test is TRPM4 (Homo sapiens, UniProt Q8TD43). The following applies: reported by Damien et al. 2007; Becerra et al. 2011; cited from earlier work.
Test [1] concerns WT EAE mice. The experiment in a line: Immunohistochemical count of axons (SMI 31/SMI 32) and neuronal somata (NeuN) in cervical spinal cord of EAE mice. The format is in vivo. The conditions noted are these: 30 days post immunization, vs vehicle control.
For a further test, the system named is Trpm4−/− EAE mice. Briefly: EAE clinical disability scores in Trpm4-/- mice treated with glibenclamide. The format is in vivo. The conditions noted are these: 10 μg daily i.p. from day 8, vs DMSO control.
The test system of test [2] is WT EAE mice. Briefly: EAE clinical disability scores, MOG35-55-immunized mice treated with glibenclamide. It counts as in vivo. The conditions noted are these: 10 μg daily i.p. from first clinical symptoms (day 8), vs vehicle (DMSO) control, P<0.05.

Sequence of TRPM4 (Q8TD43 whole entry, species assumed): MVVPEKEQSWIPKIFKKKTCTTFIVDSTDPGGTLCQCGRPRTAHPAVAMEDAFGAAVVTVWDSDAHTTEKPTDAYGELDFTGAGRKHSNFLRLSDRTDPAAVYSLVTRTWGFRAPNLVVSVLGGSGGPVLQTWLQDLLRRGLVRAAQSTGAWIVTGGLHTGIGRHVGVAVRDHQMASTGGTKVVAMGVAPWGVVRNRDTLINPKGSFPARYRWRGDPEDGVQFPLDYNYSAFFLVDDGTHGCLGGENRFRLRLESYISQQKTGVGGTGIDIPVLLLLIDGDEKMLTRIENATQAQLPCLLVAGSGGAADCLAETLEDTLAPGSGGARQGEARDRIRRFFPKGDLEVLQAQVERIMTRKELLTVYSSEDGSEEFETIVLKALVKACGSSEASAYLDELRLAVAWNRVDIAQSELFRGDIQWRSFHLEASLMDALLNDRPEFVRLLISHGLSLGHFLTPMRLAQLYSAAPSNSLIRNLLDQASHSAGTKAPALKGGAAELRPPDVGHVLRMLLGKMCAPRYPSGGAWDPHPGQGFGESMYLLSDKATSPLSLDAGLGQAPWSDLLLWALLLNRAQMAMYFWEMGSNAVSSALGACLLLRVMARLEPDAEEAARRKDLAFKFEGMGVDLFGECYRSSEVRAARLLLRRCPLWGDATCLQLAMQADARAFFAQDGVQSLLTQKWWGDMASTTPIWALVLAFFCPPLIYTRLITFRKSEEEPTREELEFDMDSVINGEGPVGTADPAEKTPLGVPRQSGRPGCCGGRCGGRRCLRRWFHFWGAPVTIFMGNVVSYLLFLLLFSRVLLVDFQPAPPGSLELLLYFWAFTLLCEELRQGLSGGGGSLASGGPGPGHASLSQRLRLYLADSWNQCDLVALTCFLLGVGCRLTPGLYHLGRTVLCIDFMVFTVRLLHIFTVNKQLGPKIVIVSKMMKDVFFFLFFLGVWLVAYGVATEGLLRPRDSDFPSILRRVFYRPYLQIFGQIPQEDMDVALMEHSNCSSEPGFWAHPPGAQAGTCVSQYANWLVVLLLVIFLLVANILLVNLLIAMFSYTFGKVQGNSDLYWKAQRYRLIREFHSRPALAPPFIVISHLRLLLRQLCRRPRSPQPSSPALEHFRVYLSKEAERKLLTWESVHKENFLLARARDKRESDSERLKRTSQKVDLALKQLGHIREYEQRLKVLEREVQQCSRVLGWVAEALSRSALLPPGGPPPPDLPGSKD

Regarding `COc1ccc(Cl)cc1C(=O)NCCc1ccc(S(=O)(=O)NC(=O)NC2CCCCC2)cc1` [glibenclamide], the TRPM4 inhibition entry at TRPM4 is “effectively inhibit TRPM4”. Moreover, the “number of axons in the corticospinal tract” value with WT EAE mice [1] (P<0.01) was “preservation of axons”. Moreover, the “number of axons in the dorsal column” value with WT EAE mice [1] (P<0.05) is “preservation of axons”. For the same molecule, in the test with WT EAE mice [1] (did not reach statistical significance), the “neuronal cell body loss in the gray matter of the spinal cord” value was “slightly diminished”. Also, the “clinical disability (mean clinical disability score)” value in the test with Trpm4−/− EAE mice is reported as “no additional clinical improvement”; in the test with WT EAE mice [2] it was “ameliorated disability”.
